Read-outs that look alike come from different tables or passages of the source.
Assay: Tissue distribution of SGC003F in rats with or without tariquidar
Format: in vivo
Details: rat; for AUC(0-t) / Kp: male; for AUC(0-t): SD; for Kp: Sprague-Dawley
Experimental: A total of 45 male SD rats were randomly divided into 15 groups, with 3 rats in each group; each set of 5 groups constituted a larger group. The first large group served as the control group: SGC003F (p.o., 1 mg/kg) + blank solvent; the second large group was designated as experimental Group I: SGC003F (p.o., 1 mg/kg) + tariquidar (i.v., 7.5 mg/kg); the third group was labeled as Group II: SGC003F (p.o., 1 mg/kg) + tariquidar (p.o., 15 mg/kg). The rats in each group were euthanized at 0.5 h, 1 h, 2 h, 4 h, and 24 h after administration. Blood samples were collected by cardiac puncture and placed in heparin tubes. The plasma was harvested by centrifugation at 2500× g for 10 min at 4 °C. Major organs (brain, heart, liver, kidney, and small intestine) were collected and homogenized with saline at a ratio of 1:4 (w/v). All samples were stored at −40 °C for further analysis.
The tissue plasma partition coefficient at individual time point (KP1) was calculated by the ratio of the tissue concentration to the plasma concentration at each time point, as described in Equation (3) KP1 = Ctissue/Cplasma(3)
The overall tissue plasma partition coefficient (KP2) was calculated by the ratio of the area under the tissue drug-time curve to the area under the plasma drug–time curve, as described in Equation (4) KP2 = AUC(0-t, tissue)/AUC(0-t, plasma)(4)

[1] = SGC003F p.o. 1 mg/kg, tariquidar i.v. 7.5 mg/kg
[2] = SGC003F p.o. 1 mg/kg, tariquidar p.o. 15 mg/kg

## COC(=O)Nc1c(N)nc(-c2nn(Cc3sccc3F)c3ncc(F)cc23)nc1N [SGC003F]
plasma, po, 1 mg/kg, SGC003F p.o. 1 mg/kg, with tariquidar i.v. 7.5 mg/kg, read-out: AUC(0–24h), Plasma
  AUC(0-t): 7540 ± 1280 ng·h/mL
plasma, po, 1 mg/kg, SGC003F p.o. 1 mg/kg, with tariquidar p.o. 15 mg/kg, read-out: AUC(0–24h), Plasma
  AUC(0-t): 10200 ng·h/mL
Small intestine, po, 1 mg/kg, SGC003F p.o. 1 mg/kg, single, read-out: AUC(0–24h), Intestine
  AUC(0-t): 2530 ± 988 ng·h/mL
Small intestine, po, 1 mg/kg, SGC003F p.o. 1 mg/kg, with tariquidar i.v. 7.5 mg/kg, read-out: AUC(0–24h), Intestine
  AUC(0-t): 5630 ± 1360 ng·h/mL
Small intestine, po, 1 mg/kg, SGC003F p.o. 1 mg/kg, with tariquidar p.o. 15 mg/kg, read-out: AUC(0–24h), Intestine
  AUC(0-t): 10400 ng·h/mL
brain, po, 1 mg/kg, SGC003F p.o. 1 mg/kg, single, read-out: KP2 (tissue/plasma AUC), Brain
  Kp: 0.002
kidney, oral, SGC003F p.o. 1 mg/kg, with tariquidar i.v. 7.5 mg/kg, read-out: KP2, Kidney
  Kp: 1.05 ± 0.14
kidney, oral, SGC003F p.o. 1 mg/kg, with tariquidar p.o. 15 mg/kg, read-out: KP2, Kidney
  Kp: 1.16 ± 0.26
kidney, po, 1 mg/kg, SGC003F p.o. 1 mg/kg, single, read-out: KP2 (tissue/plasma AUC), Kidney
  Kp: 1.11 ± 0.24
liver, oral, SGC003F p.o. 1 mg/kg, with tariquidar i.v. 7.5 mg/kg, read-out: KP2, Liver
  Kp: 0.86 ± 0.11
liver, oral, SGC003F p.o. 1 mg/kg, with tariquidar p.o. 15 mg/kg, read-out: KP2, Liver
  Kp: 0.95 ± 0.07
liver, po, 1 mg/kg, SGC003F p.o. 1 mg/kg, single, read-out: KP2 (tissue/plasma AUC), Liver
  Kp: 0.91 ± 0.09
Small intestine, oral, SGC003F p.o. 1 mg/kg, with tariquidar i.v. 7.5 mg/kg, read-out: KP2, Intestine
  Kp: 0.74 ± 0.06
Small intestine, oral, SGC003F p.o. 1 mg/kg, with tariquidar p.o. 15 mg/kg, read-out: KP2, Intestine
  Kp: 1.01 ± 0.19
Small intestine, po, 1 mg/kg, SGC003F p.o. 1 mg/kg, single, read-out: KP2 (tissue/plasma AUC), Intestine
  Kp: 0.47 ± 0.11
4 h, SGC003F p.o. 1 mg/kg with tariquidar (oral or i.v.)
  Brain-to-plasma concentration ratio relative to control group: twice
4 h, SGC003F p.o. 1 mg/kg, tariquidar intravenously 7.5 mg/kg
  Increase of SGC003F concentration in the brain versus SGC003F alone: 3.2 fold
4 h, SGC003F p.o. 1 mg/kg, tariquidar orally 15 mg/kg
  Increase of SGC003F concentration in the brain versus SGC003F alone: 4.2 fold
24 h, all groups (alone or with tariquidar)
  Concentration of SGC003F in the brain: below the limit of quantification
[1]
  AUC(0–24h), Brain, Ratio 1 (with Tar (i.v.)/single): 2.4
  AUC(0–24h), Heart, Ratio 1 (with Tar (i.v.)/single): ~1.3
  AUC(0–24h), Intestine, Ratio 1 (with Tar (i.v.)/single): 2.2
  AUC(0–24h), Kidney, Ratio 1 (with Tar (i.v.)/single): ~1.3
  AUC(0–24h), Liver, Ratio 1 (with Tar (i.v.)/single): ~1.3
  AUC(0–24h), Plasma, Ratio 1 (with Tar (i.v.)/single): 1.4
  KP2, Brain, Ratio 1 (with Tar (i.v.)/single): 2.0
  KP2, Intestine, Ratio 1 (with Tar (i.v.)/single): 1.6
[2]
  AUC(0–24h), Heart, Ratio 2 (with Tar (p.o.)/single): 2.0
  AUC(0–24h), Kidney, Ratio 2 (with Tar (p.o.)/single): 2.0
  AUC(0–24h), Liver, Ratio 2 (with Tar (p.o.)/single): 2.0
  AUC(0–24h), Plasma, Ratio 2 (with Tar (p.o.)/single): 2.0
  KP2, Brain, Ratio 2 (with Tar (p.o.)/single): 2.0
  KP2, Heart, Ratio 2 (with Tar (p.o.)/single): 1.0
  KP2, Intestine, Ratio 2 (with Tar (p.o.)/single): 2.1
  KP2, Kidney, Ratio 2 (with Tar (p.o.)/single): 1.0
  KP2, Liver, Ratio 2 (with Tar (p.o.)/single): 1.0
